In patent publication US20160192626A1, “Method For Creating Endometriotic Cells And Endometriosis Model Animal” (KYOTO UNIVERSITY, priority 2013, published 2016):

test system: endometriotic-like cells; assay: Estrogen (E2) production ability of endometriotic-like cells from androgens of adrenal origin, Estradiol EIA; assay type: cell-based, human; conditions: final concentration 1 mM, 48 hours, cells produced in the step (3)
Protocol: In this Experimental Example, the cells produced in the step (3) were confirmed for their ability to produce estradiol (E2), which was an estrogen. The cells (1×10^5 cells) produced in the step (3) were added to 1 ml of a low-carbon-source proliferation culture medium supplemented with bovine serum albumin (BSA) at 0.1% (v/v) in place of FBS, inoculated into a 12-well plate having a surface coated with collagen type I (derived from rat tail, BD Biosciences, Cat. No. 354236), and cultured for 24 hours at 37° C. in the presence of 5% CO2.
After that, A-dione (Tokyo Chemical Industry Co., Ltd.; androstenedione), DHEA (Tokyo Chemical Industry Co., Ltd.), or DHEA-sulfate (Tokyo Chemical Industry Co., Ltd.; DHEA-S, inactivated adrenal androgen), which was an androgen of adrenal origin, was added to the culture medium so that the final concentration became 1 mM, and the cells were further cultured for 48 hours. As a control (vehicle), the cells were cultured in the same manner as described above except that dimethylsulfoxide (DMSO), which was a solvent, was added in place of the androgen.
The concentration of E2 in the culture supernatant was measured by using Estradiol EIA kit (Cayman Chemical, Cat. No. 582251) according to the manual of the kit.

| SMILES | E2 production from the added androgen (concentration of E2 in the culture supernatant) |
| --- | --- |
| C[C@]12CCC(=O)C=C1CC[C@@H]1[C@@H]2CC[C@]2(C)C(=O)CC[C@@H]12 [A-dione, androstenedione] | produced E2 |
| C[C@]12CC[C@H](O)CC1=CC[C@@H]1[C@@H]2CC[C@]2(C)C(=O)CC[C@@H]12 [DHEA, dehydoepiandorosterone] | produced E2 |
| C[C@]12CC[C@H](OS(=O)(=O)O)CC1=CC[C@@H]1[C@@H]2CC[C@]2(C)C(=O)CC[C@@H]12 [DHEA-S, DHEA-sulfate] | did not produce E2 |
